Activity calls are given as the source filed them.
Columns and labels:
[1] = luciferase reporter signal reduction – luminescence, H4-C neuroglioblastoma cells, dose response (AID 2458); type: functional, cell-based;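 further: H4 neuroglioblastoma cells stably carrying a luciferase reporter gene fusion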
[2] = inhibitors of SNCA 5'UTR-driven translation, confirmation, luminescence, H4 neuroglioblastoma cells, dose confirmation (AID 2454); type: functional, cell-based;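 further: H4 neuroglioblastoma cells carrying an alpha-synuclein 5'UTR luciferase reporter; potency for inhibition of the luciferase signal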
[3] = inhibitors of firefly luciferase expression or activity, dose response, H4 neuroglioma cells, luminescence (AID 1990); type: functional, cell-based
[4] = Luminescence Cell-Based Dose Response HTS to Identify Inhibitors of 5'UTR Stem-Loop Driven Prion Protein mRNA Translation in H4 Neuroglioblastoma Cells. [Related pubchem assays: 1827 (Project Summary), 1813 (Primary HTS)]; type: functional
[5] = cells; type: functional, cell-based
[6] = inhibitors of SNCA 5'UTR-driven reporter translation, confirmation, H4 neuroglioma cells, luminescence (AID 1988); type: functional, cell-based
[7] = biological target: T1, Neuropeptide Y receptor type 1 (Homo sapiens, UniProt P25929); experiment: Fluorescence-based counterscreen for agonists of NPY-Y2: cell-based high-throughput dose response assay for agonists of NPY-Y1.; type: functional
T1 sequence (P25929 whole entry): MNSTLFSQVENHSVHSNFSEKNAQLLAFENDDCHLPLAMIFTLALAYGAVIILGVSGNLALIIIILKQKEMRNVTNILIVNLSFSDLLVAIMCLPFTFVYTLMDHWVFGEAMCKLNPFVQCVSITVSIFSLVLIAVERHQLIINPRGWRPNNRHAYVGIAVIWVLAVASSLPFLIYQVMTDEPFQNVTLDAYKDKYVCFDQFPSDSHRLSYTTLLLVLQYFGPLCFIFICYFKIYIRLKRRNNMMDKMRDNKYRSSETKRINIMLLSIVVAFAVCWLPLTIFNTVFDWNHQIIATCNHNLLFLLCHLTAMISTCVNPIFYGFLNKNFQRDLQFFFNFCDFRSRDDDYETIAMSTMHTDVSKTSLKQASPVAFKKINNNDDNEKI

[8] = system: HEK293; experiment: Fluorescence-based counterscreen for potentiators or agonists of NPY-Y2: cell-based high-throughput dose response assay to identify inhibitors of cyclic nucleotide gated ion channel (CNGC) activity. In this assay, the parental HEK293 cell line transfected with a cyclic-nucleotide gated ion channel (CNGC)-based cAMP sensor is used to measure inhibition of isoproterenol-induced CNGC activity by test compound.; type: functional; settings: Homo sapiens
[9] = biological target: T2, Neuropeptide Y receptor type 2 (Homo sapiens, UniProt P49146); experiment: Fluorescence-based cell-based high-throughput dose response assay for agonists of NPY-Y2. [Related pubchem assays: 1703 (Screening assay (CNGC inhibitors).), 1359 (Screening assay (NPY-Y2 potentiators or agonists).), 1304 (Screening assay (NPY-Y1 potentiators or agonists).), 1710 (Screening assay (NPY-Y2 agonists).), 1791 (Summary AID.)]; type: functional
T2 sequence (P49146 whole entry): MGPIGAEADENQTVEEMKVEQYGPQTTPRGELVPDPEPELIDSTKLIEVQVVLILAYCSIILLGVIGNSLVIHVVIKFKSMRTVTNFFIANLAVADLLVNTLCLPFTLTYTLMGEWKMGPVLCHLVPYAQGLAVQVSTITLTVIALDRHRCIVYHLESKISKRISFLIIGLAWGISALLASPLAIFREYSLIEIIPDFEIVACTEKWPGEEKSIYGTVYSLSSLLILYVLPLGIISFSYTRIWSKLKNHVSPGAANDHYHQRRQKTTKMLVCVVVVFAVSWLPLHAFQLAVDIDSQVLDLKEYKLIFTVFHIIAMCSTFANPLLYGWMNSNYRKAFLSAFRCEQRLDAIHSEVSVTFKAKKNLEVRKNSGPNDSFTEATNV

[10] = Luminescence Cell-Based Dose Response HTS to Identify Activators of Luciferase Translation or Activity in H4 […] Cells. [Related pubchem assays: 1829 (Project Summary), 1814 (Primary HTS)]; type: functional
[11] = system: Vero; experiment: cells; type: functional, cell-based; settings: Chlorocebus sabaeus
[12] = system: Vero; experiment: cells; type: functional; settings: Chlorocebus sabaeus
[13] = HEp-2 cell cytotoxicity, dose response, cytotoxicity control for RSV inhibitor project, HTS (AID 2410); type: functional; settings: human respiratory syncytial virus
[14] = cells
[15] = system: H4; experiment: Luminescence Cell-Based Dose Response HTS to Identify Activators of 5'UTR Stem-Loop Driven Prion Protein mRNA Translation in H4 Neuroglioblastoma Cells. [Related pubchem assays: 1829 (Project Summary), 1814 (Primary HTS)]; type: functional; settings: Homo sapiens
[16] = biological target: T3, Corticotropin-releasing factor receptor 2/Corticotropin-releasing factor-binding protein (Homo sapiens, UniProt P24387+Q13324); experiment: activators of CRF receptor 2 with binding protein – uHTS hits, confirmation (AID 602473); type: functional; settings: read-out: EC50_Mean
T3 sequence (Q13324 whole entry): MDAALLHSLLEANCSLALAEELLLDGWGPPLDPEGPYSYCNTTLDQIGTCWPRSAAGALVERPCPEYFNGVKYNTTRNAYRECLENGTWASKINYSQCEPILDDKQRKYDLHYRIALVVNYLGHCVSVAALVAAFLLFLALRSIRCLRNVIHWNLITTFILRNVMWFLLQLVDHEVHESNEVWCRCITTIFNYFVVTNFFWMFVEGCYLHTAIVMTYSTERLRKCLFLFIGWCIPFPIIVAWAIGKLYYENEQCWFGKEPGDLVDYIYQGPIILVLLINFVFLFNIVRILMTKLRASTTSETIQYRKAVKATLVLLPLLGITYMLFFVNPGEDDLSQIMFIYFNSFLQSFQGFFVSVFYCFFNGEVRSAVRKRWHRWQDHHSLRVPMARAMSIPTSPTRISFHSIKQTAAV
T3 sequence (P24387 whole entry): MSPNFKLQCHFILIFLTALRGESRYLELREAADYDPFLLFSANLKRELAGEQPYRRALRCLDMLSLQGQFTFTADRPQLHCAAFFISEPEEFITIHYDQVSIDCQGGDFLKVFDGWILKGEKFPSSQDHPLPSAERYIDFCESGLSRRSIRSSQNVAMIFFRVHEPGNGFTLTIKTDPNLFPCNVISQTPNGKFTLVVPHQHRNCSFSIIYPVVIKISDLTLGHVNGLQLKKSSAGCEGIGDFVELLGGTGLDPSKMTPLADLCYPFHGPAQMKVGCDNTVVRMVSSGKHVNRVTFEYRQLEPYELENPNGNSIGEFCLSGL

[17] = cytotoxicity in HEK-293T cells, dose response, cytotoxicity control for BCR NF-kB inhibitor project, luminescence, B-cell screen hits (AID 489021); type: functional, cell-based;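 further: HEK-293T cells carrying an NF-kB luciferase reporter; cells exposed to compound for about 14 hours before viability readout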
[18] = system: HEK293; experiment: inhibitors of LMP1-driven NF-kB reporter, dose response, cell-based, HEK293, luciferase, cherry-pick (AID 588343); type: functional; settings: Homo sapiens
[19] = biological target: Luciferin 4-monooxygenase (Photinus pyralis, UniProt P08659); experiment: Counter Screen for Luciferase-based Assay Positives. [Related pubchem assays: 620, 618, 411 ]
[20] = system: HT-1080; experiment: cytotoxicity in HT1080 fibrosarcoma cells, cell-based, fluorescence readout (AID 620); type: functional; settings: Homo sapiens
[21] = biological target: T4, Ubiquitin-conjugating enzyme E2 N (Homo sapiens, UniProt P61088); type: functional;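 further: Dose-response confirmation in a TR-FRET assay detecting UBC13-driven polyubiquitin chain formation, inhibition measured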
T4 sequence (P61088 whole entry): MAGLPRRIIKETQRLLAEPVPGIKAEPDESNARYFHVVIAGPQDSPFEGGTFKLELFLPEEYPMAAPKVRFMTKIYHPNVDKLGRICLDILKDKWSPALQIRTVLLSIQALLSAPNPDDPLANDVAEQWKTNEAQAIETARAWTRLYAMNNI

[22] = biological target: Peroxisome proliferator-activated receptor gamma/Nuclear receptor coactivator 1 (Homo sapiens, UniProt P37231); type: functional;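 further: agonist potency as compounds enhance coactivator SRC-1 recruitment to PPARgamma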
[23] = biological target: Peroxisome proliferator-activated receptor gamma/Nuclear receptor coactivator 3 (Homo sapiens, UniProt P37231); type: functional;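 further: agonist potency for raising coactivator recruitment to the receptor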
[24] = biological target: T3, Corticotropin-releasing factor receptor 2/Corticotropin-releasing factor-binding protein; experiment: Dose Response confirmation of uHTS hits for small molecule antagonists of the CRF-binding protein and CRF-R2 receptor complex.; type: functional; settings: read-out: IC50_Mean
[25] = biological target: Peroxisome proliferator-activated receptor gamma/Nuclear receptor coactivator 2 (Homo sapiens, UniProt P37231); type: functional;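 further: agonist potency for raising coactivator recruitment to the receptor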
[26] = Luminescence Cell-Based Dose Retest to Confirm Inhibitors of Cancer Stem Cells. [Related pubchem assays (depositor defined):AID2717, AID2721]; type: functional; settings: Homo sapiens
[27] = biological target: T5, Bcl-2-like protein 10 (Homo sapiens, UniProt Q9HD36); experiment: displacers of TR3 peptide from Bcl-B, primary screen, selectivity assay for Bfl-1 inhibitor project, biochemical, fluorescence polarization, FITC-TR3 peptide (AID 748);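 further: fluorescence polarization from a fluorescein-labelled TR3 peptide binding purified Bcl-B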
T5 sequence (Q9HD36 whole entry): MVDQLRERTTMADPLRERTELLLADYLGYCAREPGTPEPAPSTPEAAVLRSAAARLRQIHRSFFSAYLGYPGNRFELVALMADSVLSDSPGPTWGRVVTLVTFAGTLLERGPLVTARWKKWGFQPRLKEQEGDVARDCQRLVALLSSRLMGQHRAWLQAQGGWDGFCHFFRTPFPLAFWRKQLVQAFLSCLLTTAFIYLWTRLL

[28] = biological target: Glyceraldehyde-3-phosphate dehydrogenase (Homo sapiens, UniProt P04406)
[29] = biological target: T6, Protein skinhead-1 (Caenorhabditis elegans, UniProt P34707); type: functional
T6 sequence (P34707 whole entry): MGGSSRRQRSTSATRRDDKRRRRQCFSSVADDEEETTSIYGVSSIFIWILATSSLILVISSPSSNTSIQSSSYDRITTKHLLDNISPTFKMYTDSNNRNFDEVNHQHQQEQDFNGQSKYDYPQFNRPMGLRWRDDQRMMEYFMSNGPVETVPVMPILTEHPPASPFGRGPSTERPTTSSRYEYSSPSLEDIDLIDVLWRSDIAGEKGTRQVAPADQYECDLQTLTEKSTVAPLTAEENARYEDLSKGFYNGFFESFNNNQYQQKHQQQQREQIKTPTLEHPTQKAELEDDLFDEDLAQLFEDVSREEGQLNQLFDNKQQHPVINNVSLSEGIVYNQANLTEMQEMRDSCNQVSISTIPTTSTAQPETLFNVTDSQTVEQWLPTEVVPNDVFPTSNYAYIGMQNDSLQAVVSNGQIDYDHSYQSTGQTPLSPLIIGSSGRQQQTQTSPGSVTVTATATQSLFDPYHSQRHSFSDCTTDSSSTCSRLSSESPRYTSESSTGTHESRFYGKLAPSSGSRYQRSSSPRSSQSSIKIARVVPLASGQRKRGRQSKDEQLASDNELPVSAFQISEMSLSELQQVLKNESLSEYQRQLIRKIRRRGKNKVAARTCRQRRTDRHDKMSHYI

[30] = biological target: NS3 (Hepatitis C virus, UniProt A3EZJ3); experiment: PubChem AID 2173; design: species or system Hepacivirus hominis

Chain of Peroxisome proliferator-activated receptor gamma/Nuclear receptor coactivator 2 (P37231 whole entry): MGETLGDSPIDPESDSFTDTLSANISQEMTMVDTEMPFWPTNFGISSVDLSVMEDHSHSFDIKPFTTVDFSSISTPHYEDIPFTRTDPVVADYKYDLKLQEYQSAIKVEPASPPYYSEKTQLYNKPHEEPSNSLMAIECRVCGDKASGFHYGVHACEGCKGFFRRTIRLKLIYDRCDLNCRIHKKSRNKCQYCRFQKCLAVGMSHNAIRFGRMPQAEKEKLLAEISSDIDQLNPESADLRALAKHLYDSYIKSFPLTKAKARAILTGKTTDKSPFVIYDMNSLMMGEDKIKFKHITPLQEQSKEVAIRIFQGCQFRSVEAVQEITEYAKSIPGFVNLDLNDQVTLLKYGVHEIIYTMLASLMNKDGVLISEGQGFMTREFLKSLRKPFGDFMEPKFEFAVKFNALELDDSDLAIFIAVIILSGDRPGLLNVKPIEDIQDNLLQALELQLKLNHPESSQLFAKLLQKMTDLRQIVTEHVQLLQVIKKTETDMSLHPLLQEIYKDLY
Chain of Peroxisome proliferator-activated receptor gamma/Nuclear receptor coactivator 2 (Q15596 whole entry, further chain): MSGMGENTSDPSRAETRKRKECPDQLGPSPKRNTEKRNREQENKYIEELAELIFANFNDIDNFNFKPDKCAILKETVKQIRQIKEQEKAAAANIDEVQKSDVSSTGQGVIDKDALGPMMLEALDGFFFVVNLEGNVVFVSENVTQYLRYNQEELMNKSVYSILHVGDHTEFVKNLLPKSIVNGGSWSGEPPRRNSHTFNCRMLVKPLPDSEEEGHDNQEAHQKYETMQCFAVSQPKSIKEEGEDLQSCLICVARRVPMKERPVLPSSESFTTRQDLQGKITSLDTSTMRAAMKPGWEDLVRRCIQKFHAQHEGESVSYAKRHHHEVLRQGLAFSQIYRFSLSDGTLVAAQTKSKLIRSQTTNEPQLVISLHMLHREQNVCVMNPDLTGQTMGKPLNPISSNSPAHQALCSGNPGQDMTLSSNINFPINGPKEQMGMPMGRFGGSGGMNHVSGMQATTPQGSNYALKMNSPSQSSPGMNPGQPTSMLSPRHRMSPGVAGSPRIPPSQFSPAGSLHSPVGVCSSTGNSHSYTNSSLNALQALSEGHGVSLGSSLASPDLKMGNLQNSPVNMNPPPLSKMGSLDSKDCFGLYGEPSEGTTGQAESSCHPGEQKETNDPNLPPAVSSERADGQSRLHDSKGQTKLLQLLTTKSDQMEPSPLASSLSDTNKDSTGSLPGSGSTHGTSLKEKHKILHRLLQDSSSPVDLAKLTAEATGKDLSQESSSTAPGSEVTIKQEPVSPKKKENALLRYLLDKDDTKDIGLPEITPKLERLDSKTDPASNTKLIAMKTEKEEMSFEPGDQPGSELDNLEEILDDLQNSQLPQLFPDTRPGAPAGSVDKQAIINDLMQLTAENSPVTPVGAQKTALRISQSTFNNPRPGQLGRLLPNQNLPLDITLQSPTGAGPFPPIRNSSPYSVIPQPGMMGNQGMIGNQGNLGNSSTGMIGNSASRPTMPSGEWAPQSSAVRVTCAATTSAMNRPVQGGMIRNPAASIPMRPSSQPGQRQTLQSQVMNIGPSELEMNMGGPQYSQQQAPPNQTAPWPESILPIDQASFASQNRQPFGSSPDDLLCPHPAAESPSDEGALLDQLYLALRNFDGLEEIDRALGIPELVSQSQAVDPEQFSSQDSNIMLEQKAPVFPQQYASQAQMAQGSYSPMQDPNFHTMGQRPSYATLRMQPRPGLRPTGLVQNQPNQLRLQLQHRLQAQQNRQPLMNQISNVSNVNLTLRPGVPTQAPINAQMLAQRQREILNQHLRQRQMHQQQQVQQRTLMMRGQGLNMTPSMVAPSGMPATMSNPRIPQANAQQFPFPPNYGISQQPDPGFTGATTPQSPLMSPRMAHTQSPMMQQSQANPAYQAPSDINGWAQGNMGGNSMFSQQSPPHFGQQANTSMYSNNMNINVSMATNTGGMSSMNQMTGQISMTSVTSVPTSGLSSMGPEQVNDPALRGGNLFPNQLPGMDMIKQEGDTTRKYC
Chain of Peroxisome proliferator-activated receptor gamma/Nuclear receptor coactivator 3 (P37231 whole entry): as the sequence (P37231 whole entry) above
Chain of Peroxisome proliferator-activated receptor gamma/Nuclear receptor coactivator 3 (Q9Y6Q9 whole entry, further chain): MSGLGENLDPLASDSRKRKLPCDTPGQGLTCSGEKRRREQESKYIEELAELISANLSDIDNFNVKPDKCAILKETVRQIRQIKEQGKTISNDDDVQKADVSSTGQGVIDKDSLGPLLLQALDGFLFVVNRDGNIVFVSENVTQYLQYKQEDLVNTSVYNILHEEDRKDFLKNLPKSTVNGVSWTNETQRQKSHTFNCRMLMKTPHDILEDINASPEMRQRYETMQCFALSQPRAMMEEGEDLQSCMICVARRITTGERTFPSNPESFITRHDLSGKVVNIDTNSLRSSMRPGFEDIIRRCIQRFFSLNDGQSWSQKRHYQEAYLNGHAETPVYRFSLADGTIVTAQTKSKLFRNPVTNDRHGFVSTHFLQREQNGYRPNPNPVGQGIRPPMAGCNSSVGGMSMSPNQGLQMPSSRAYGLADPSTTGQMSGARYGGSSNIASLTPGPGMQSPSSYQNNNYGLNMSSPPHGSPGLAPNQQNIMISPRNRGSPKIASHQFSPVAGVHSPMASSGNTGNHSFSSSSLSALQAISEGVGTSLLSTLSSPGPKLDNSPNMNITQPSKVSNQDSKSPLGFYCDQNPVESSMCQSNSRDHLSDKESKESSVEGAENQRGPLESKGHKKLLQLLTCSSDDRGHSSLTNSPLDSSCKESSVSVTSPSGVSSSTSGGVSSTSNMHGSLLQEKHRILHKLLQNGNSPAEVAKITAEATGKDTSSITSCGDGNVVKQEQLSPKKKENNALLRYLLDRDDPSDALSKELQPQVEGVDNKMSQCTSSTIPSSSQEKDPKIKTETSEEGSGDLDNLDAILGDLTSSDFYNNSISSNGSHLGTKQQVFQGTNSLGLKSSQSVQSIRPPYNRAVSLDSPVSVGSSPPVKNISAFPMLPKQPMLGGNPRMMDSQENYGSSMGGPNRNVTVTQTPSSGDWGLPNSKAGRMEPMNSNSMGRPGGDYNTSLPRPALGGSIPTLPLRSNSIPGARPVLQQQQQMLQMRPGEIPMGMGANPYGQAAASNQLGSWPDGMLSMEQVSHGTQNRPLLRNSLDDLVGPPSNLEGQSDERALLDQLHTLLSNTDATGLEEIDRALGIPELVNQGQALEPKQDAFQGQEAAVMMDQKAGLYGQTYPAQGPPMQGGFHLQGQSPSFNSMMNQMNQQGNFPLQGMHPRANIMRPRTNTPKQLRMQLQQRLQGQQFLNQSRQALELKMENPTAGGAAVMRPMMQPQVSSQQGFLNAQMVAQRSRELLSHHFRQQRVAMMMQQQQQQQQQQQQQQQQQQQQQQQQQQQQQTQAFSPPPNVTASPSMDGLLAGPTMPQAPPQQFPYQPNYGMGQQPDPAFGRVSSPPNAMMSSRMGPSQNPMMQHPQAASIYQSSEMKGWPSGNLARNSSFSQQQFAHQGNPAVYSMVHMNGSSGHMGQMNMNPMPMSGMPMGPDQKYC
Chain of Luciferin 4-monooxygenase (P08659 whole entry): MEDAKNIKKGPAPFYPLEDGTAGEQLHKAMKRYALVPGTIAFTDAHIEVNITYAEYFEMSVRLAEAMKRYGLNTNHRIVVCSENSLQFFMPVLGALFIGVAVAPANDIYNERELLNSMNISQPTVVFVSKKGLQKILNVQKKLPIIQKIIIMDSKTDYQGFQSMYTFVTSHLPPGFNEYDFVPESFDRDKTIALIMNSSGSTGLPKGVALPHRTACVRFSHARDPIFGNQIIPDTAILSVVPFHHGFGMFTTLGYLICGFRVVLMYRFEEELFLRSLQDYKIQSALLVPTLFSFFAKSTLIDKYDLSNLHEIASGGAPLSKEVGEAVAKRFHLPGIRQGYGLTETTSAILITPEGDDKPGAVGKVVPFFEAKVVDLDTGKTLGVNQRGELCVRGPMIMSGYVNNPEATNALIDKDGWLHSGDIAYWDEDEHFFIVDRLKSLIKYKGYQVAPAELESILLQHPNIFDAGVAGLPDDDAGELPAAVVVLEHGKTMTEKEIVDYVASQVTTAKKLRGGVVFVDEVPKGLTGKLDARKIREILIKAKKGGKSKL
Chain of Glyceraldehyde-3-phosphate dehydrogenase (P04406 whole entry): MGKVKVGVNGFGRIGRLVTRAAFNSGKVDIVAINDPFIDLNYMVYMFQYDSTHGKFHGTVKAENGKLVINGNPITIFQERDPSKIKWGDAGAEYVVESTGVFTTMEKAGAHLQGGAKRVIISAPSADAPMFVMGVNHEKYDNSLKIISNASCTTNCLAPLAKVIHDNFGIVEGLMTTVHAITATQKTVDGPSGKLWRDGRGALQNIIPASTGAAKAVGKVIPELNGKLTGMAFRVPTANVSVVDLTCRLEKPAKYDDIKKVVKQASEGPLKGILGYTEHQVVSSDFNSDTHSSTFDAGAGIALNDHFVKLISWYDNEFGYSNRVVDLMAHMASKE

SMILES: Cn1c2ccc(Br)cc2c2nnc(SCC(=O)O)nc21
- EC50 [1]: > 12 µM (not active)
- EC50 [2]: 9.55 µM (active)
- EC50 [3]: > 60 µM (not active)
- EC50 [4]: < 0.1 µM (active)
- EC50 [5]: > 12 µM (not active)
- EC50 [6]: 29.3 µM (active)

SMILES: CC(SC(=S)N1CCCC1)C(=O)O (configuration not stated)
- EC50 [7]: > 35.4 µM (not active)
- EC50 [8]: > 35.4 µM (not active)
- EC50 [9]: > 35.4 µM (not active)

SMILES: CCN(CC)C(=O)N1c2ccccc2C=Cc2ccccc21
- EC50 [10]: 30 µM (active)
- IC50 [11]: 4.41 µM (active)
- CC50 [12]: > 25 µM (active)
- CC50 [13]: 9.46 µM (active)
- IC50 [14]: 2.02 µM (active)
- EC50 [15]: > 120 µM (not active)

SMILES: O=C(Nc1ccccc1Cl)c1c(F)c(F)c(F)c(F)c1F
- EC50 [7]: > 35.4 µM (not active)
- EC50 [8]: > 35.4 µM (not active)
- EC50 [9]: > 35.4 µM (not active)

SMILES: CCOC(=O)c1ccc(NC(=S)N2CCSC2c2ccc(Br)cc2)cc1 (configuration not stated)
- EC50 [16]: 4.38 µM (active)
- CC50 [13]: 14 µM (active)
- IC50 [14]: 11 µM (active)

SMILES: COc1cccc(-c2noc(CCC(=O)NCCc3ccccc3)n2)c1
- IC50 [17]: > 80 µM (inactive)

SMILES: CCOC(=O)CNC(=O)CSc1nnc(NC(=O)c2ccc(C)cc2)s1
- EC50 [3]: 9.66 µM (active)
- IC50 [17]: > 80 µM (inactive)
- EC50 [4]: 11 µM (active)
- AC50 [18]: 1.65 µM (active)
- EC50 [6]: 7.31 µM (active)

SMILES: COc1ccc(C(=O)Nn2c(SCC(=O)NCc3ccco3)nc3ccccc3c2=O)cc1
- EC50 [3]: 8.65 µM (inconclusive)
- EC50 [4]: 8.39 µM (active)
- EC50 [19]: 0.44 µM (active)
- AC50 [18]: 2.48 µM (active)
- EC50 [20]: > 50 µM (not active)
- EC50 [6]: 8.3 µM (active)
- IC50 [21]: > 20 µM (inactive)

SMILES: COc1ccc(NS(=O)(=O)c2c(C)n(C)c(=O)n(C)c2=O)cc1OC
- EC50 [22]: > 79.4 µM (not active)
- EC50 [16]: > 53 µM (inactive)
- EC50 [23]: > 79.4 µM (not active)
- IC50 [24]: > 47.1 µM (inactive)
- EC50 [25]: > 79.4 µM (not active)

SMILES: Cc1cc(C)cc(NC(=O)Nc2ccc(NC(=O)c3ccccc3O)cc2)c1
- IC50 [17]: > 80 µM (inactive)
- AC50 [26]: 0.167 µM (active)

SMILES: O=C(COC(=O)Cc1ccccc1)Nc1ncc(Cl)cc1Cl
- IC50 [27]: 91.5 µM (inactive)

SMILES: CCC(C(=O)Nc1ccc(O)c(C(=O)O)c1)c1ccccc1 (configuration not stated)
- IC50 [28]: > 100 µM (not active)

SMILES: c1coc(C2Nc3cccc4cccc(c34)N2)c1
- EC50 [3]: > 120 µM (not active)
- EC50 [4]: > 120 µM (not active)
- EC50 [6]: > 120 µM (not active)
- IC50 [27]: 42.8 µM (active)

SMILES: CSC1=NC(C)(C)CC2(CC(c3ccccc3)Oc3cc(O)ccc32)N1 (configuration not stated)
- EC50 [22]: > 79.4 µM (not active)
- EC50 [23]: > 79.4 µM (not active)
- IC50 [29]: > 100 µM (inactive)
- EC50 [25]: > 79.4 µM (not active)

SMILES: O=C1/C(=C/C=C/C=C/Nc2ccccc2)SC(=S)N1Cc1ccccc1
- IC50 [30]: 17.3 µM (not active)
